Experimental data reported in PubChem BioAssay AID272 (DTP/NCI, 2004).
Values joined by “and” are separate entries in the source; they are usually repeats but may differ in a detail not shown here. Identical values can stand only once. Results filed as inconclusive are left out. Starred links: 1 amine or outer side, 2 acyl side, 3 side chain; linkers in the order of their positions; H or OH if unused. Positions of bridges follow the written chain, without caps; N, C: chain ends. Non-standard residues stand in square brackets, D forms with d. Residues, ends and D or L forms follow the SMILES beside them. Chains are numbered I, II in the order given. Actinocin(9to1) = Cc1c2oc3c(C)ccc(C(=O)[*:1])c3nc-2c(C(=O)[*:2])c(N)c1=O; aThr = C[C@H](O)[C@H](N)C(=O)O; NMeV = CN[C@H](C(=O)O)C(C)C; Sar = CNCC(=O)O

Test system: Lewis lung carcinoma i.m., BDF1 mice, T/C %
Assay: NCI In Vivo Anticancer Drug Screen. Data for tumor model Lewis Lung Carcinoma (intramuscular) in B6D2F1 (BDF1) mice
Outline: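 Compound given to mice with transplantable tumours; survival or tumour size compared against the vehicle control group, reported as T divided by C.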

## COC12C(COC(N)=O)C3=C(C(=O)C(C)=C(N)C3=O)N1CC1C2N1C (stereo not given)
endpoint: median survival time, dose: 2.0 mg/kg/injection, schedule: Q01DX009 (ip), vehicle: Klucel (hydroxypropylcellulose) (HPC), higher = longer survival
  T/C: 92 % of control and 105 % of control
endpoint: median survival time, dose: 2.0 mg/kg/injection, schedule: Q01DX011 (ip), vehicle: saline + alcohol, higher = longer survival
  T/C: 101 % of control and 111 % of control
endpoint: median survival time, dose: 4.0 mg/kg/injection, schedule: Q01DX009 (ip), vehicle: Klucel (hydroxypropylcellulose) (HPC), higher = longer survival
  T/C: 100 % of control and 106 % of control
endpoint: median survival time, dose: 4.0 mg/kg/injection, schedule: Q01DX011 (ip), vehicle: saline + alcohol, higher = longer survival
  T/C: 105 % of control

## Cc1c2oc3c(C)ccc(C(=O)N[C@@H]4C(=O)N[C@H](C(C)C)C(=O)N5CCC[C@H]5C(=O)N(C)CC(=O)N(C)[C@@H](C(C)C)C(=O)O[C@H]4C)c3nc-2c(C(=O)N[C@@H]2C(=O)N[C@H](C(C)C)C(=O)N3CCC[C@H]3C(=O)N(C)CC(=O)N(C)[C@@H](C(C)C)C(=O)O[C@H]2C)c(N)c1=O (I: [aThr][dV]P[Sar][NMeV] / II: [aThr][dV]P[Sar][NMeV]; ester I:1-I:C, II:1-II:C; linker I:N-II:N via Actinocin(9to1))
endpoint: median survival time, dose: 0.01 mg/kg/injection, schedule: Q01DX011 (ip), vehicle: water, higher = longer survival
  T/C: 99 % of control and 110 % of control and 112 % of control
endpoint: median survival time, dose: 0.02 mg/kg/injection, schedule: Q01DX011 (ip), vehicle: water, higher = longer survival
  T/C: 93 % of control and 94 % of control and 110 % of control
endpoint: median survival time, dose: 0.04 mg/kg/injection, schedule: Q01DX011 (ip), vehicle: water, higher = longer survival
  T/C: 110 % of control
endpoint: median survival time, dose: 0.05 mg/kg/injection, schedule: Q01DX011 (ip), vehicle: water, higher = longer survival
  T/C: 99 % of control and 100 % of control

## Cc1n(CC(C)C)c2c([n+]1C)C(=O)c1ccccc1C2=O
endpoint: mean tumor weight (est.), dose: 2.0 mg/kg/injection, schedule: Q01DX011 (ip), vehicle: saline with Tween-80, higher = larger tumour
  T/C: 40 % of control
endpoint: median survival time, dose: 2.0 mg/kg/injection, schedule: Q01DX011 (ip), vehicle: saline with Tween-80, higher = longer survival
  T/C: 91 % of control
